Here are results for 4 compounds from article PMC11945486, “TAS1R2/TAS1R3 Single-Nucleotide Polymorphisms Affect Sweet Taste Receptor Activation by Sweeteners: The SWEET Project” (Nutrients, 2025).

Each structure is given as a SMILES string.

This test addresses T1, mTAS1R2-WT/mTAS1R3-I60T (Mus musculus, UniProt Q925D8+Q925I4, I60T).
T1 construct: expressed in transfected cells; host or cells: HEK293T-Gα16gust44
T1 sequence (Q925I4 20-843): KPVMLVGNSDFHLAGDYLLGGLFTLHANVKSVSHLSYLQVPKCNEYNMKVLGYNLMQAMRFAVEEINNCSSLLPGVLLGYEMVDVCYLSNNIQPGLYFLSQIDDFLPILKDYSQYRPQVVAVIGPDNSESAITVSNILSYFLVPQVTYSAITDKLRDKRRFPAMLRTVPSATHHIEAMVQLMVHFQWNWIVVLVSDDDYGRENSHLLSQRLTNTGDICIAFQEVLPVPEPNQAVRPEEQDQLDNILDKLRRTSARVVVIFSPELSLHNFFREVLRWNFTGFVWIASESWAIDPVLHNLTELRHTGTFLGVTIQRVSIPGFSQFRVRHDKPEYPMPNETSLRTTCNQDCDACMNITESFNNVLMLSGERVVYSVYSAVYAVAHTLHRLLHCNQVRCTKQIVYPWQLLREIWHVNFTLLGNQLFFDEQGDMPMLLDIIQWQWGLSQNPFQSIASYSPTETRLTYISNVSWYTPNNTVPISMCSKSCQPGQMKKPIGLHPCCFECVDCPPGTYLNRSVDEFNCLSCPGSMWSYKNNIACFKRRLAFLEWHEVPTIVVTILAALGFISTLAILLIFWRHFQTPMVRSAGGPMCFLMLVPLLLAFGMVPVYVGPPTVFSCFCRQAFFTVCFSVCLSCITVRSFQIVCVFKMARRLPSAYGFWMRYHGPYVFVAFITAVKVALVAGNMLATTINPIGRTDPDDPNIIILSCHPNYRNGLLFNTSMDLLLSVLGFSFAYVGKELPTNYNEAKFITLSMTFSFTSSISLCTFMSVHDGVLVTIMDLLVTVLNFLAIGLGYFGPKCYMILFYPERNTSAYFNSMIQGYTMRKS
T1 sequence (Q925D8 21-858 I60T): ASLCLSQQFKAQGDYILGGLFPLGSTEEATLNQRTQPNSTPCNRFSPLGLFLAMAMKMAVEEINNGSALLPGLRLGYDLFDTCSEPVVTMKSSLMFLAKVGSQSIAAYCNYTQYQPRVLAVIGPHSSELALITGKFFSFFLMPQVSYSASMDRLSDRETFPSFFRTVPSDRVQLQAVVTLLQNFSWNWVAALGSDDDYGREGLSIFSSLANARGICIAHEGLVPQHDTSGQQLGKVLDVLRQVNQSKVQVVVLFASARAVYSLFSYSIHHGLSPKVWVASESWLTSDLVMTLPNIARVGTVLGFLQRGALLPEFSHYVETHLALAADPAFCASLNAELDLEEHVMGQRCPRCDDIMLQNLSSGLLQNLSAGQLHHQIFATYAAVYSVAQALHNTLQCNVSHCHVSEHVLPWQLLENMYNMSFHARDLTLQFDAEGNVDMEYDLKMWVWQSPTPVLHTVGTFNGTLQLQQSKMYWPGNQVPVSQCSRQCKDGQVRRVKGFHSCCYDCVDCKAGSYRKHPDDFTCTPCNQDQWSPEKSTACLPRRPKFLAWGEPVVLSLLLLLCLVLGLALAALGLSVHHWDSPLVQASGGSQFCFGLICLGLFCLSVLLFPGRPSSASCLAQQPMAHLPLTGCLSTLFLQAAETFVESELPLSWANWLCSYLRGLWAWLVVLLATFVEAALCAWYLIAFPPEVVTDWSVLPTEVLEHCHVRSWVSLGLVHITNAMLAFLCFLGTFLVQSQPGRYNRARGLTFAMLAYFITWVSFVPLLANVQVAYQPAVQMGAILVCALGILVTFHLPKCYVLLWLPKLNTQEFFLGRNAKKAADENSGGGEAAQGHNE
Kind of test: Calcium mobilisation assay, HEK293T-Gα16gust44 cells, mouse TAS1R3-I60T variant. Type of test: cell-based. The conditions noted are these: "-": no activation; for EC50 / Max ΔF/F0: mTAS1R2-WT + mTAS1R3-I60T; for Max ΔF/F0: maximal signal amplitude; for R1 = Variant EC50/WT EC50: mTAS1R3-I60T vs mTAS1R3-WT. As to the method: The HEK293T cells were kindly provided by Jay P. Slack (Givaudan Flavors Corporation; Cincinnati, OH, USA). HEK293T cells stably transfected with Gα16gust44 [43, 67] were seeded in poly-D-lysine-coated clear-bottom black 96-well plates (0.35 × 10^5 cells/well) in high-glucose DMEM supplemented with 2 mM GlutaMAX, 10% dialysed foetal bovine serum with penicillin/streptomycin and G418 (400 μg/mL) at 37 °C and 6.3% CO2 in a humidified atmosphere as previously reported. […] As a negative control, HEK293T cells were mock-transfected with the empty expression vector. After a further 24 h of incubation, the HEK293T cells were washed with C1 buffer (130 mM NaCl, 5 mM KCl, 10 mM HEPES pH 7.4 and 2 mM CaCl2). The 96-well plates containing the cells were then stimulated with sweet-tasting compounds. […] Different concentration ranges were tested depending on the sweet compound injected. The Ca^2+ changes were expressed as fractional changes in fluorescent light intensity: ΔF/F = (F − F0)/F0, where F was the fluorescent light intensity at each point, and F0 was the value of emitted fluorescent light prior to stimulus application. To calculate dose–response relationships, the changes in fluorescence upon stimulus application were averaged, mock-subtracted and baseline-corrected. The dose–response data obtained were adjusted using a 4-parameter logistic equation. The half-maximal effective concentrations (EC50 values) and maximal signal amplitudes were calculated using SigmaPlot software (version 15.0) (Systat Software; San Jose, CA, USA).
HEK293T-Gα16gust44 cells were transiently cotransfected with pcDNA6-MAX-mTAS1R2-FLAG, pcDNA4-MAX-mTAS1R3-WT-FLAG or pcDNA4-MAX-mTAS1R3-I60T-FLAG, and pCMV-GCaMP5G as previously described in detail. After 24 h, the cells were washed with C1 buffer and stimulated with a logarithmically increasing range of sweetener concentrations. Calcium responses during automated application were monitored using a FlexStation®3 Multi-Mode microplate reader. The dose–response curves, EC50 values and maximal signal amplitudes were calculated as previously described.
For in vitro calcium mobilisation assay performed on hTAS1R2-SNPs, hTAS1R3-SNPs and mTAS1R3-I60T, 6 to 7 concentrations were tested for each sweet compound, plus buffer alone. All concentration–receptor combinations were measured in duplicate, and each experiment was repeated at least 4 times (8 wells/concentration). Results were expressed for each concentration as ΔF/F mean ± SEM and represented as dose–response curves.
In general terms: Calcium assays in cells follow changes in intracellular calcium, usually with a dye or a luminescent sensor.

A word on the EC50: it is the concentration giving half of the maximal effect.

With `CC1=CC(=O)NS(=O)(=O)O1` [Acesulfame K, acesulfame K], the concentration giving a half-maximal response (EC50) was found to be 744 ± 19 µM, the “Max ΔF/F0” value is recorded as 1.03 ± 0.02 and the “R1 = Variant EC50/WT EC50” value worked out at 1.7.
In the case of `C[C@H](CC[C@@H](O[C@@H]1O[C@H](CO[C@@H]2O[C@H](CO)[C@@H](O)[C@H](O)[C@H]2O)[C@@H](O)[C@H](O)[C@H]1O[C@@H]1O[C@H](CO)[C@@H](O)[C@H](O)[C@H]1O)C(C)(C)O)[C@H]1CC[C@@]2(C)[C@@H]3CC=C4[C@@H](CC[C@H](O[C@@H]5O[C@H](CO[C@@H]6O[C@H](CO)[C@@H](O)[C@H](O)[C@H]6O)[C@@H](O)[C@H](O)[C@H]5O)C4(C)C)[C@]3(C)[C@H](O)C[C@]12C` [Mogroside V, mogroside V], the EC50 came to 225 ± 25 µM, the “Max ΔF/F0” value worked out at 0.50 ± 0.03 and the “R1 = Variant EC50/WT EC50” value came to 1.7.
`C=C1C[C@@]23CC[C@H]4[C@@](C)(CCC[C@@]4(C)C(=O)O[C@@H]4O[C@H](CO)[C@@H](O)[C@H](O[C@@H]5O[C@H](CO)[C@@H](O)[C@H](O)[C@H]5O)[C@H]4O[C@@H]4O[C@H](CO)[C@@H](O)[C@H](O)[C@H]4O)[C@@H]2CC[C@]1(O[C@@H]1O[C@H](CO)[C@@H](O)[C@H](O[C@@H]2O[C@H](CO)[C@@H](O)[C@H](O)[C@H]2O)[C@H]1O[C@@H]1O[C@H](CO)[C@@H](O)[C@H](O)[C@H]1O)C3` [Rebaudioside M, rebaudioside M]: the EC50 is 73 ± 2 µM, the “Max ΔF/F0” value is 0.71 ± 0.01 and the “R1 = Variant EC50/WT EC50” value is 1.7.
`OC[C@H]1O[C@H](O[C@]2(CCl)O[C@H](CCl)[C@@H](O)[C@@H]2O)[C@H](O)[C@@H](O)[C@H]1Cl` [Sucralose]: the EC50 was 1520 ± 56 µM, the “Max ΔF/F0” value was 1.47 ± 0.03 and the “R1 = Variant EC50/WT EC50” value is given as 2.0.
